Results as given in PubChem BioAssay AID192 (DTP/NCI, 2004).
Values joined by “and” are separate entries in the source; they are usually repeats but may differ in a detail not shown here. Equal values may be shown once. Toxic doses and inconclusive results are not listed.

Tested on: BDF1 mice, B16 melanoma ip, median survival T/C
Experiment: NCI In Vivo Anticancer Drug Screen. Data for tumor model B16 Melanoma (intraperitoneal) in B6D2F1 (BDF1) mice
Details: endpoint: median survival time, higher = longer survival
Outline: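 Tumor-bearing mice received test compound or vehicle. Survival or tumor size was then measured in both groups. The treated-group figure was divided by the control-group figure.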

[1] = dose: 25.0 mg/kg/injection, schedule: Q01DX009 (ip), vehicle: Klucel (hydroxypropylcellulose) (HPC)
[2] = dose: 50.0 mg/kg/injection, schedule: Q01DX009 (ip), vehicle: Klucel (hydroxypropylcellulose) (HPC)
[3] = dose: 100.0 mg/kg/injection, schedule: Q01DX009 (ip), vehicle: Klucel (hydroxypropylcellulose) (HPC)
[4] = dose: 200.0 mg/kg/injection, schedule: Q01DX009 (ip), vehicle: Klucel (hydroxypropylcellulose) (HPC)
[5] = dose: 25.0 mg/kg/injection, schedule: Q01DX009 (ip), vehicle: saline with Tween-80
[6] = dose: 50.0 mg/kg/injection, schedule: Q01DX009 (ip), vehicle: saline with Tween-80
[7] = dose: 100.0 mg/kg/injection, schedule: Q01DX009 (ip), vehicle: saline with Tween-80
[8] = dose: 12.5 mg/kg/injection, schedule: Q01DX009 (ip), vehicle: saline
[9] = dose: 25.0 mg/kg/injection, schedule: Q01DX009 (ip), vehicle: saline
[10] = dose: 200.0 mg/kg/injection, schedule: Q01DX009 (ip), vehicle: saline with Tween-80
[11] = dose: 400.0 mg/kg/injection, schedule: Q01DX009 (ip), vehicle: saline with Tween-80

In the case of `IP(c1ccccc1)(c1ccccc1)(c1ccccc1)N1C2CCCCC21` (stereo unspecified), the T/C (dose: 0.15 mg/kg/injection, schedule: Q01DX009 (ip), vehicle: saline) is reported as 115 % of control, the T/C (dose: 0.3 mg/kg/injection, schedule: Q01DX009 (ip), vehicle: saline) is reported as 111 % of control and the T/C (dose: 0.6 mg/kg/injection, schedule: Q01DX009 (ip), vehicle: saline) is reported as 111 % of control. The T/C (dose: 1.2 mg/kg/injection, schedule: Q01DX009 (ip), vehicle: saline) was 92 % of control.

In the case of `CC(C)=CN1CCOCC1`, the T/C [1] is reported as 94 % of control, the T/C [2] is reported as 100 % of control and the T/C [3] is reported as 94 % of control.

`COc1cccc(N2C(=O)CSC2=S)c1` was tested, and the T/C [3] was 93 % of control and the T/C [4] was 90 % of control.

`S=C(NNc1ccccc1)Nc1ccccc1` was tested, and the T/C [1] was 97 % of control and the T/C [2] was 106 % of control.

`COC1/C=C\C=C(/C)C(=O)Nc2cc3nc4cccc(Br)c4oc-3c(c2=O)CC(C)CC(OC)C(O)C(C)/C=C(\C)C1OC(N)=O` (stereo unspecified) was tested, and the T/C (dose: 12.5 mg/kg/injection, schedule: Q01DX005 (ip), vehicle: other) was 103 % of control, the T/C (dose: 25.0 mg/kg/injection, schedule: Q01DX005 (ip), vehicle: other) was 98 % of control and the T/C (dose: 50.0 mg/kg/injection, schedule: Q01DX005 (ip), vehicle: other) was 108 % of control. The T/C (dose: 100.0 mg/kg/injection, schedule: Q01DX005 (ip), vehicle: other) was 107 % of control and the T/C (dose: 200.0 mg/kg/injection, schedule: Q01DX005 (ip), vehicle: other) was 94 % of control.

For `CC1CCN(c2ccc([N+](=O)[O-])cc2[N+](=O)[O-])CC1`, the T/C [2] was 100 % of control, the T/C [3] was 100 % of control and the T/C [4] was 112 % of control.

In the case of `CC(=O)Oc1cc(C)c(OC(C)=O)c2ccccc12`, the T/C [2] is reported as 94 % of control and the T/C [3] is reported as 88 % of control.

For `CCc1ccc(NC(=O)Nc2ccccc2C)cc1`, the T/C (dose: 100.0 mg/kg/injection, schedule: Q04DX003 (ip), vehicle: Klucel (hydroxypropylcellulose) (HPC)) was 96 % of control, the T/C (dose: 200.0 mg/kg/injection, schedule: Q04DX003 (ip), vehicle: Klucel (hydroxypropylcellulose) (HPC)) was 96 % of control and the T/C (dose: 400.0 mg/kg/injection, schedule: Q04DX003 (ip), vehicle: Klucel (hydroxypropylcellulose) (HPC)) was 100 % of control.

For `COc1cc2cc3cc4cc(OC)c(OC)cc4c(C)[n+]3cc2cc1OC` (tested in a mixture with another compound), the T/C (dose: 10.0 mg/kg/injection, schedule: Q01DX009 (ip), vehicle: Klucel (hydroxypropylcellulose) (HPC)) was 96 % of control and the T/C (dose: 20.0 mg/kg/injection, schedule: Q01DX009 (ip), vehicle: Klucel (hydroxypropylcellulose) (HPC)) was 95 % of control.

`ClC1CCC[N-]C1.ClC1CCC[N-]C1.[Cl][Pt+2]([Cl])([Cl])[Cl]` (stereo unspecified) was tested, and the T/C (dose: 0.78 mg/kg/injection, schedule: Q01DX009 (ip), vehicle: saline with Tween-80) was 105 % of control, the T/C (dose: 1.56 mg/kg/injection, schedule: Q01DX009 (ip), vehicle: saline with Tween-80) was 100 % of control and the T/C (dose: 3.13 mg/kg/injection, schedule: Q01DX009 (ip), vehicle: saline with Tween-80) was 97 % of control. For the same molecule, the T/C (dose: 6.25 mg/kg/injection, schedule: Q01DX009 (ip), vehicle: saline with Tween-80) was 106 % of control.

`CS(=O)(=O)OCCN(CCOS(C)(=O)=O)c1ccc(/C=N/Nc2ncnc3nc[nH]c23)cc1` was tested, and the T/C [5] was 115 % of control, the T/C [6] was 110 % of control and the T/C [7] was 105 % of control and 113 % of control. For the same molecule, the T/C (dose: 400.0 mg/kg/injection, schedule: Q04DX003 (ip), vehicle: saline with Tween-80) was 91 % of control and 121 % of control.

In the case of `CCN(C(=O)c1ccc(C(=O)N(CC)c2ccccc2)cc1)c1ccccc1`, the T/C [2] is reported as 119 % of control, the T/C [3] is reported as 114 % of control and the T/C [4] is reported as 111 % of control.

`C=CCc1cn(C2CC(O)C(CO)O2)c(=O)[nH]c1=O` (stereo unspecified) was tested, and the T/C [8] was 104 % of control, the T/C [9] was 105 % of control and the T/C (dose: 50.0 mg/kg/injection, schedule: Q01DX009 (ip), vehicle: saline) was 104 % of control. The T/C (dose: 100.0 mg/kg/injection, schedule: Q01DX009 (ip), vehicle: saline) was 105 % of control, the T/C (dose: 200.0 mg/kg/injection, schedule: Q01DX009 (ip), vehicle: saline) was 105 % of control and the T/C (dose: 400.0 mg/kg/injection, schedule: Q01DX009 (ip), vehicle: saline) was 107 % of control.

For `CC[CH2][Pb]([Cl])([CH2]CC)[CH2]CC`, the T/C (dose: 0.09 mg/kg/injection, schedule: Q01DX009 (ip), vehicle: DMSO) was 100 % of control, the T/C (dose: 0.18 mg/kg/injection, schedule: Q01DX009 (ip), vehicle: DMSO) was 92 % of control and the T/C (dose: 0.37 mg/kg/injection, schedule: Q01DX009 (ip), vehicle: DMSO) was 95 % of control. For the same molecule, the T/C (dose: 0.75 mg/kg/injection, schedule: Q01DX009 (ip), vehicle: DMSO) was 95 % of control and the T/C (dose: 1.5 mg/kg/injection, schedule: Q01DX009 (ip), vehicle: DMSO) was 92 % of control.

In the case of `CN(C(=O)c1cccnc1)c1ccccc1`, the T/C [7] is reported as 109 % of control, the T/C [10] is reported as 118 % of control and the T/C [11] is reported as 111 % of control.

For `O=S1(=O)C=CCCC=C1`, the T/C (dose: 6.25 mg/kg/injection, schedule: Q01DX009 (ip), vehicle: Klucel (hydroxypropylcellulose) (HPC)) was 102 % of control, the T/C (dose: 12.5 mg/kg/injection, schedule: Q01DX009 (ip), vehicle: Klucel (hydroxypropylcellulose) (HPC)) was 98 % of control and the T/C [1] was 95 % of control. For the same molecule, the T/C [2] was 98 % of control and 102 % of control.

`O=C(O)/C(=C\c1ccc(Cl)cc1)c1ccc(Cl)cc1` was tested, and the T/C (dose: 37.5 mg/kg/injection, schedule: Q01DX009 (ip), vehicle: Klucel (hydroxypropylcellulose) (HPC)) was 87 % of control, the T/C (dose: 75.0 mg/kg/injection, schedule: Q01DX009 (ip), vehicle: Klucel (hydroxypropylcellulose) (HPC)) was 92 % of control and the T/C (dose: 150.0 mg/kg/injection, schedule: Q01DX009 (ip), vehicle: Klucel (hydroxypropylcellulose) (HPC)) was 93 % of control.

In the case of `COc1ccc(NC(=O)Nc2cc(C(F)(F)F)ccc2Cl)cc1`, the T/C (dose: 8.0 mg/kg/injection, schedule: Q01DX009 (ip), vehicle: saline with Tween-80) is reported as 100 % of control, the T/C (dose: 12.0 mg/kg/injection, schedule: Q01DX009 (ip), vehicle: saline with Tween-80) is reported as 100 % of control and the T/C (dose: 12.5 mg/kg/injection, schedule: Q01DX009 (ip), vehicle: saline with Tween-80) is reported as 215 % of control. For the same molecule, the T/C (dose: 18.0 mg/kg/injection, schedule: Q01DX009 (ip), vehicle: saline with Tween-80) was 104 % of control, the T/C [5] was 194 % of control and the T/C [6] was 218 % of control.

In the case of `CCCCCCCCSSCCCCCCCC`, the T/C [7] is reported as 108 % of control, the T/C [10] is reported as 101 % of control and the T/C [11] is reported as 98 % of control.

`O=C(O)Cc1c(O)ccc2ccccc12` was tested, and the T/C (dose: 25.0 mg/kg/injection, schedule: Q04DX003 (ip), vehicle: gum acacia) was 100 % of control, the T/C (dose: 50.0 mg/kg/injection, schedule: Q04DX003 (ip), vehicle: gum acacia) was 100 % of control and the T/C (dose: 100.0 mg/kg/injection, schedule: Q04DX003 (ip), vehicle: gum acacia) was 97 % of control.

With `CC[C@H](CC[C@@H](C)[C@H]1CC[C@H]2[C@@H]3CC=C4C[C@@H](O)CC[C@]4(C)[C@H]3CC[C@]12C)C(C)C` the T/C [3] was 91 % of control, the T/C [4] was 109 % of control and the T/C (dose: 400.0 mg/kg/injection, schedule: Q01DX009 (ip), vehicle: Klucel (hydroxypropylcellulose) (HPC)) was 94 % of control.

With `c1ccc(C[n+]2ccc3ccccc3c2)cc1` the T/C (dose: 6.25 mg/kg/injection, schedule: Q01DX009 (ip), vehicle: saline) was 105 % of control and 113 % of control, the T/C (dose: 6.25 mg/kg/injection, schedule: Q04DX003 (ip), vehicle: saline with Tween-80) was 95 % of control and the T/C [8] was 117 % of control. For the same molecule, the T/C (dose: 12.5 mg/kg/injection, schedule: Q04DX003 (ip), vehicle: saline with Tween-80) was 107 % of control, the T/C [9] was 108 % of control and 110 % of control and the T/C (dose: 25.0 mg/kg/injection, schedule: Q04DX003 (ip), vehicle: saline with Tween-80) was 100 % of control.

With `C=C(C)C12OC3(CCCCCCCCC)OC1C1C4OC4(COC(=O)CCCCCCCCCCCCCCC)C(O)C4(O)C(=O)C(C)=CC4C1(O3)C(C)C2OC(=O)c1ccccc1` (stereo unspecified) the T/C (dose: 0.5 micrograms/kg/injection, schedule: Q01DX009 (ip), vehicle: saline) was 102 % of control, the T/C (dose: 1.0 micrograms/kg/injection, schedule: Q01DX009 (ip), vehicle: saline) was 105 % of control and the T/C (dose: 1.9 micrograms/kg/injection, schedule: Q01DX009 (ip), vehicle: saline) was 91 % of control. The T/C (dose: 3.8 micrograms/kg/injection, schedule: Q01DX009 (ip), vehicle: saline) was 110 % of control, the T/C (dose: 7.5 micrograms/kg/injection, schedule: Q01DX009 (ip), vehicle: saline) was 91 % of control and the T/C (dose: 15.0 micrograms/kg/injection, schedule: Q01DX009 (ip), vehicle: saline) was 100 % of control. The T/C (dose: 30.0 micrograms/kg/injection, schedule: Q01DX009 (ip), vehicle: saline) was 100 % of control.
